Like-named read-outs stand apart in the source and are kept apart here.

Here are results for four compounds from PMC5613068, “Resolving distinct molecular origins for copper effects on PAI-1” (Journal of Biological Inorganic Chemistry, 2017).

Test [1] concerns the target PAI-1. More on the design: method as in PMID 12067733, PMID 10764685. Conditions: read-out: K d of VN binding to PAI-1; cited from earlier work.
In test [2] the target is vitronectin SMB domain (Homo sapiens) (UniProt P04004). Conditions: cited from earlier work.
Sequence of vitronectin SMB domain (Homo sapiens) (P04004 17-66): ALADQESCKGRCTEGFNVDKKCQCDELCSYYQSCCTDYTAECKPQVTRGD
The target of test [3] is vitronectin (Homo sapiens) (UniProt P04004). To be noted: cited from earlier work.
Sequence of vitronectin (Homo sapiens) (P04004 399-478): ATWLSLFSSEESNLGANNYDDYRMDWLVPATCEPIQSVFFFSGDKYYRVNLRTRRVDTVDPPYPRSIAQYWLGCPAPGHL
The target of test [4] is PAI-1. Set-up: method as in PMID 21280128. Conditions: read-out: K d of copper binding to PAI-1; cited from earlier work.
The target in test [5] is tPA (Homo sapiens, UniProt P00750). The experiment in a line: PAI-1 activity measurement (inhibition of tPA at varying molar ratios). Type of test: biochemical. To be noted: purified active protein. How it is done: The activity of wild-type and variant forms of PAI-1 was measured using standard assays. PAI-1 was mixed with tPA at varying molar ratios ranging from 0.25 to 4 (PAI-1:tPA). The inhibitory capacity of PAI-1 was measured in a gel-based assay, wherein the PAI-1/tPA complex at each molar ratio was monitored and quantified by densitometry. PAI-1 inhibition of proteases was also measured in a kinetic assay in which the tPA-substrate (Spectrozyme tPA, Sekisui Diagnostics) was added to the mixture containing PAI-1 and tPA. Cleavage of the p-nitroanaline group of Spectrozyme tPA was detected by absorbance at 405 nm, allowing for the measurement of tPA activity over time at each molar ratio of PAI-1:tPA. […] Latent PAI-1 was generated by dilution in buffer (50 mM sodium phosphate, 300 mM NaCl, 1 mM EDTA, pH 6.25) to a 5 μM concentration, and incubation at 37 °C with light stirring for 6 days. The aforementioned activity measurements were performed to confirm that no active PAI-1 remained in the mixture.
Sequence of tPA (P00750 311-562 limits assumed): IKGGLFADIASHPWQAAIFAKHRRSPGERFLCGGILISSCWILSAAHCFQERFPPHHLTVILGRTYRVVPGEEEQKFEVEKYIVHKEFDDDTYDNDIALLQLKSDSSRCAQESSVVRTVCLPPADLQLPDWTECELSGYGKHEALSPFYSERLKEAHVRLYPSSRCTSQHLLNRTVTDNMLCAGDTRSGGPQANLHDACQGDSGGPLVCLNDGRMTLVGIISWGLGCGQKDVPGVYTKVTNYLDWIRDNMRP

A short description of test [6]: Isothermal titration calorimetry of Cu(II) binding to PAI-1. To be noted: 10 °C; for Kd / K obs: one-site model; for Kd: K d = 1/K obs. How it is done:
Isothermal titration calorimetry (ITC) was used to determine the thermodynamic parameters associated with Cu(II) interactions with PAI-1. Active and latent forms of wild-type and variants of PAI-1 were dialyzed into 100 mM MOPS, 250 mM (NH4)2SO4 at 10 °C for 2 h. Because of the relative instability of the H2AH3A variant of PAI-1, our studies on H2AH3A PAI-1 utilized a variant that contained an additional mutation, W175F. […] Residue 175 is not proximal to the N terminus and is not involved in metal ion coordination or its subsequent effects on PAI-1 stability. Copper solutions were prepared by diluting CuSO4 into the matched dialysate buffer. The copper stock concentration was verified using atomic absorbance spectroscopy, and the pH corrected to 7.4 at 10 °C using NaOH. Twenty micromolar PAI-1 (2.2 mL total volume) and copper solution (4 mL) were degassed under vacuum for 10 min at 5 °C prior to loading into the (Malvern) MicroCal VP-ITC. The PAI-1 solution was loaded into the ITC cell (1.394 mL), and the copper solution was loaded into the ITC syringe. The reference and experimental ITC cells were equilibrated to 10 °C prior to the start of the experiment. After a preliminary injection of 2 µL, each additional injection consisted of a 4 µL injection at 120 or 240 s intervals. Experiments were performed at least in duplicate. Control experiments measuring dilution heats were performed in which the copper solution was injected into buffer. The data were baseline corrected using NITPIC software (University of Texas, Southwestern), and fit to either a single-site or two-site non-symmetric binding model in SEDPHAT (National Institutes of Health). The data and fits were represented using GUSSI software (University of Texas, Southwestern).
A general note: In ITC the heat of successive injections is recorded.

Test [7] is described as follows: Metal ion titration gel assay (copper sensitivity of PAI-1 latency, PAI-1/tPA complex densitometry). Format: biochemical. To be noted: 4 µM PAI-1, 30 min, 37 °C, 50 mM MOPS, 100 mM (NH4)2SO4 pH 7.4, total Cu(II) 5-1000 µM, non-equilibrium. On the procedure: To determine the Cu(II) concentrations required to induce accelerated PAI-1 latency, we used a gel-based metal ion titration assay. Serial dilutions of CuSO4 were prepared, resulting in final Cu(II) concentrations ranging from 5 to 1000 μM. […] Incubation with metal was initiated by adding PAI-1 at a final concentration of 4 μM and maintaining the mixture at 37 °C in 50 mM MOPS, 100 mM (NH4)2SO4 pH 7.4 for 30 min. After the 30-min incubation, PAI-1 was mixed in a 1:1 ratio with single-chain tPA (Molecular Innovations). Three control samples (PAI-1, tPA, and PAI-1/tPA) were also tested in which copper is not included. Non-reducing SDS-PAGE dye was added to each sample, followed by boiling for 10 min prior to loading on the gel. The free/latent PAI-1, free tPA, and PAI-1/tPA complex in each sample were separated and visualized by SDS-PAGE electrophoresis in a 4–12% gradient gel (Invitrogen). Samples were subjected to electrophoresis at 150 V for 75 min. SDS-PAGE gels were stained with Coomassie blue dye overnight, followed by three destaining steps of 90 min in deionized water containing 30% methanol and 7.5% glacial acetic acid. Gel pictures were captured using a ChemiDoc XRS molecular imager (Biorad), and gel band densitometry of the PAI-1/tPA complex bands was performed using Imagelab (Biorad). […]

Sequence of PAI-1 (from UniProt P05121) (P05121 24-402): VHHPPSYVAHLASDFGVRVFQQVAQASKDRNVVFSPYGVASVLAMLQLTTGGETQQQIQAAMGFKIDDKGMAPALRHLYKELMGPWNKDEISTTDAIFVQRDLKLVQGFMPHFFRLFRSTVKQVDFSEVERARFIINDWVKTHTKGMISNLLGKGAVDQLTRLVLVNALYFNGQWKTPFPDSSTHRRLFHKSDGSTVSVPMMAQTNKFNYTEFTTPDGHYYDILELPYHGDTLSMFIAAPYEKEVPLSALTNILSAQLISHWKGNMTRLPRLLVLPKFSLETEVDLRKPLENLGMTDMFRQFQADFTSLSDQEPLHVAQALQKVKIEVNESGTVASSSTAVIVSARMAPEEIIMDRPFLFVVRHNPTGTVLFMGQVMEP

Turning to “VN: Vitronectin, glycoprotein that binds and stabilizes active PAI-1”, the Kd in test [1] is about 0.1 nM.

Consider PAI-1 (from UniProt P05121), for which the results for the Kd in test [2] and in test [3] were 1 nM and 0.1 nM, respectively.

With `O=S(=O)([O-])[O-].[Cu+2]` [Copper, CuSO4], in test [4], the Kd is about 90 nM.

With “plasminogen activator inhibitor-1 [Wild-type]”, the “molar equivalents of PAI-1 that fully inhibit tPA” value in test [5] was determined as 1.25 molar equivalents. In addition, the Kd worked out at 13 nM in test [6] ([Cu(II)] 650 µM), 19 nM in test [6] ([Cu(II)] 700 µM), 20 nM in test [6] ([Cu(II)] 750 µM) and 24 nM in test [6] ([Cu(II)] 800 µM). Besides, the K obs in test [6] ([Cu(II)] 750 µM) is on record as 4.8 (±5.5) × 10^7 M^−1; in test [6] ([Cu(II)] 800 µM), 4.1 (±2.8) × 10^7 M^−1. In test [6] (single-site model, average of replicate data), the “average K obs” value came out at 5.4e+07 M⁻¹. Further, the “Copper sensitivity (midpoint Cu(II) concentration at which 50% PAI-1/tPA complex is observed)” value is listed as 150 µM in test [7] and “approximately 150 µM” in test [7] (listed as wild-type PAI-1).
